Data: patent US20240116985A1, “STAPLED PEPTIDES AND METHODS THEREOF” (priority 2020, published 2024)
In brackets after ≈: the same amount, converted by molar mass. Where two headings read alike, the source gives them in different places.

Key:
[1] = molecular target: T1, full-length beta-Catenin (Uniprot ID P35222) (Homo sapiens, UniProt P35222); assay: Fluorescence polarization IC50 (beta-catenin / 5FAM-TCF4 10-53 competition); format: binding
T1 construct: 10 nM full-length beta-Catenin (Uniprot ID P35222)
T1 sequence (P35222 1-781): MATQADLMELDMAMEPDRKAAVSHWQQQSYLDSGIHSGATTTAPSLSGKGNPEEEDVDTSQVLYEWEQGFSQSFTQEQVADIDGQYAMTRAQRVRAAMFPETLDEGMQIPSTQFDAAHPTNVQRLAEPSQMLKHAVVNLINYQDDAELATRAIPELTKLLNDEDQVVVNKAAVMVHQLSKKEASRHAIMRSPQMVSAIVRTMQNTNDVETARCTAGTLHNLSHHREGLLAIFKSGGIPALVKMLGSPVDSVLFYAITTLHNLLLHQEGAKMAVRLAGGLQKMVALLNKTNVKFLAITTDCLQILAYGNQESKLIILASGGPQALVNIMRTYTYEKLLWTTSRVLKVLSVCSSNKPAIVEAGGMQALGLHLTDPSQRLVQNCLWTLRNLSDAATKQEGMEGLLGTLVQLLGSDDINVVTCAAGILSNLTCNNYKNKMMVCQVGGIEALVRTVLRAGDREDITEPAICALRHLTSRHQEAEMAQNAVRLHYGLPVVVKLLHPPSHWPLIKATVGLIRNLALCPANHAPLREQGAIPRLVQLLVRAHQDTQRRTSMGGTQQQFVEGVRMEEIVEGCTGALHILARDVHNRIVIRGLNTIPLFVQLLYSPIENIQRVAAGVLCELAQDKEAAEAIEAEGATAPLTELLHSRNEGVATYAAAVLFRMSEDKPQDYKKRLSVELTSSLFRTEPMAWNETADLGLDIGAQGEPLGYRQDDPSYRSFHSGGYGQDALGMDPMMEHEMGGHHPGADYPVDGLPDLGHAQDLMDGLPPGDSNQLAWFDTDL

CHI Log D procedure = format: physicochemical; settings: for chromatographic logD: pH 7.4, CHI Log D; for CHI Log D: pH 7.4
Solubility in PBS = format: physicochemical
Outline: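 Solubility is derived from HPLC peak areas: the ratio of the PBS supernatant peak to a 50 μM DMSO peptide peak, times 50 uM.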

[2] = molecular target: T2, beta-catenin/TCF4 engagement (Homo sapiens, UniProt P35222); assay: Nano-BRET target engagement assay (B-cat-Halo & TCF4-Luc in HEK293 cells); format: cell-based
T2 construct: expressed in transfected cells; host or cells: HEK293
T2 sequence (P35222 1-781): T1 sequence (P35222 1-781)

[3] = absolute IC50; read-out: NanoBRET Abs IC50
[4] = fluorescence polarization, beta-catenin, read-out: FP EC50

SMILES | IC50 ([1]; read-out: beta-Catenin FP IC50) [nM] | chromatographic logD (CHI Log D procedure) | Solubility (Solubility in PBS; Solubility (uM)) [µM] | IC50 [2, 3] [nM] | Solubility (Solubility in PBS) [µM] | IC50 ([1]; read-out: FP EC50, fluorescence polarization, beta-catenin) [nM] | CHI Log D (CHI Log D procedure) | IC50 ([2]; read-out: NanoBRET Abs IC50; absolute IC50) [nM] | IC50 [1, 4] [nM] | IC50 ([2]; read-out: NanoBRET Abs IC50) [nM]
CC(=O)N1CCC[C@]12CC=CCCCC1(CCCC=CCCCOC(=O)N3CC[C@@](C(=O)N[C@@H](Cc4ccccc4Cl)C(=O)N[C@@H](Cc4csc5ccccc45)C(=O)N[C@@H](CCC(N)=O)C(N)=O)(C3)NC(=O)[C@H](CO)NC(=O)[C@H](Cc3ccccc3)NC(=O)[C@H](C)NC(=O)[C@H](C)NC(=O)[C@H](CC(=O)O)NC(=O)[C@H](CC(=O)O)NC1=O)NC(=O)[C@H](Cc1ccccc1)NC(=O)[C@H](CC(=O)O)NC2=O (stereo partly drawn) [I-1045, Ac-PL3-Asp-Phe-B5-Asp-Asp-Ala-Ala-Phe-Ser-PyrS2-2C1F-BztA-Gln-NH2] | 5 | 2.12 | 49 (≈ 95 µg/mL) | 23900 |  |  |  |  |  | 
CC(=O)N1CCC[C@]12CC=CCCCC1(CCCC=CCCCOC(=O)N3CC[C@@](C(=O)N[C@@H](Cc4ccccc4Cl)C(=O)N[C@@H](Cc4csc5ccccc45)C(=O)N[C@@H](CO)C(N)=O)(C3)NC(=O)[C@H](CC(N)=O)NC(=O)[C@H](Cc3ccccc3)NC(=O)[C@H](C)NC(=O)[C@H](C)NC(=O)[C@H](CC(=O)O)NC(=O)[C@H](CC(=O)O)NC1=O)NC(=O)[C@H](CC1CCCCC1)NC(=O)[C@H](CC(=O)O)NC2=O (stereo partly drawn) [I-1046, Ac-PL3-Asp-Cha-B5-Asp-Asp-Ala-Ala-Phe-Asn-PyrS2-2C1F-BztA-Ser-NH2] | 5 | 2.4 | 37 (≈ 71.5 µg/mL) | 20500 |  |  |  |  |  | 
CC(=O)N1CCC[C@]12CC=CCCCC1(CCCC=CCCCOC(=O)N3CC[C@@](C(=O)N[C@@H](Cc4ccccc4Cl)C(=O)N[C@@H](Cc4csc5ccccc45)C(=O)N[C@@H](CO)C(N)=O)(C3)NC(=O)[C@H](CC(N)=O)NC(=O)[C@H](Cc3ccccc3)NC(=O)[C@H](C)NC(=O)[C@H](C)NC(=O)[C@H](CC(=O)O)NC(=O)[C@H](CC(=O)O)NC1=O)NC(=O)[C@H](Cc1ccccc1)NC(=O)[C@H](CC(=O)O)NC2=O (stereo partly drawn) [I-1047, Ac-PL3-Asp-Phe-B5-Asp-Asp-Ala-Ala-Phe-Asn-PyrS2-2C1F-BztA-Ser-NH2] | 5 | 2.19 |  | 28400 | 10 (≈ 19.3 µg/mL) |  |  |  |  | 
C[C@@H]1NC(=O)[C@H](C)NC(=O)[C@H](CC(=O)O)NC(=O)[C@H](CC(=O)O)NC(=O)C2(CCCC=CCCCCCC[C@@](C)(C(=O)N[C@@H](Cc3ccsc3)C(=O)N[C@@H](Cc3csc4ccccc34)C(=O)N[C@@H](CCC(N)=O)C(N)=O)NC(=O)[C@H](CC(N)=O)NC(=O)[C@H](Cc3ccccc3)NC1=O)CCCC=CC[C@]1(CCCN1C(=O)CN=[N+]=[N-])C(=O)N[C@@H](CC(=O)O)C(=O)N[C@@H](CC(C)(C)C)C(=O)N2 (stereo partly drawn) [I-1053, AzAc-PL3-Asp-Npg-B5-Asp-Asp-Ala-Ala-Phe-Asn-S8-3Thi-BztA-Gln-NH2] |  |  |  |  | 48 (≈ 92 µg/mL) | 11 | 2.381 | > 20000 |  | 
CC(=O)N1CCC[C@]12CC=CCCCC1(CCCC=CCCCOC(=O)N3CC[C@@](C(=O)N[C@@H](Cc4ccccc4Cl)C(=O)N[C@@H](Cc4csc5ccccc45)C(=O)N[C@@H](CCC(N)=O)C(=O)NCCCCCCN)(C3)NC(=O)[C@H]([C@@H](C)O)NC(=O)[C@H](Cc3ccccc3)NC(=O)[C@H](C)NC(=O)[C@H](C)NC(=O)[C@H](CN(CC(=O)O)CC(F)(F)F)NC(=O)[C@H](CC(=O)O)NC1=O)NC(=O)[C@H](CC(C)(C)C)NC(=O)[C@H](CC(=O)O)NC2=O (stereo partly drawn) [I-1061, Ac-PL3-Asp-Npg-B5-Asp-TfeGA-Ala-Ala-Phe-Thr-PyrS2-2C1F-BztA-Gln-6AmHex] | 6 | 2.56 |  | 10300 | 10 (≈ 21.4 µg/mL) |  |  |  |  | 
CC(=O)N1CCC[C@]12CC=CCCCC1(CCCC=CCCCOC(=O)N3CC[C@@](C(=O)N[C@@H](Cc4ccccc4)C(=O)N[C@@H](Cc4csc5ccccc45)C(=O)N[C@@H](CCC(N)=O)C(N)=O)(C3)NC(=O)[C@H](CC(C)C)NC(=O)[C@H](Cc3ccccc3)NC(=O)[C@H](C)NC(=O)[C@H](C)NC(=O)[C@H](CC(=O)O)NC(=O)[C@H](CC(=O)O)NC1=O)NC(=O)[C@H](CC(C)(C)C)NC(=O)[C@H](CC(=O)O)NC2=O (stereo partly drawn) [I-1072, Ac-PL3-Asp-Npg-B5-Asp-Asp-Ala-Ala-Phe-Leu-PyrS2-Phe-BztA-Gln-NH2] | 10 | 1.39 | 35 (≈ 66.9 µg/mL) |  |  |  |  |  | 723 | 10500
CC(=O)N1CCC[C@]12CC=CCCCC1(CCCC=CCCCCCC[C@@](C)(C(=O)N[C@@H](Cc3ccccc3Cl)C(=O)N[C@@H](Cc3csc4ccccc34)C(=O)N[C@@H](CCC(N)=O)C(N)=O)NC(=O)[C@H]([C@@H](C)O)NC(=O)[C@H](Cc3ccccc3)NC(=O)[C@H](C)NC(=O)[C@H](C)NC(=O)[C@H](CCC(=O)O)NC(=O)[C@H](CC(=O)O)NC1=O)NC(=O)[C@H](CC(C)(C)C)NC(=O)[C@H](CC(=O)O)NC2=O (stereo partly drawn) [I-1088, Ac-PL3-Asp-Npg-B5-Asp-Glu-Ala-Ala-Phe-Thr-S8-2ClF-BztA-Gln-NH2] | 22 |  |  |  | 44 (≈ 83.8 µg/mL) |  | 2.8 |  | 22 | 6300
CC(=O)N1CCC[C@]12CC=CCCCC1(CCCC=CCCCCCC[C@@](C)(C(=O)N[C@@H](Cc3ccccc3Cl)C(=O)N[C@@H](Cc3csc4ccccc34)C(=O)N[C@@H](CCC(N)=O)C(N)=O)NC(=O)[C@H]([C@@H](C)O)NC(=O)[C@H](Cc3ccccc3)NC(=O)[C@H](C)NC(=O)[C@H](C)NC(=O)[C@H](CCC(=O)O)NC(=O)[C@H](CC(=O)O)NC1=O)NC(=O)[C@H](CC(C)(C)C)NC(=O)[C@H](CC(=O)O)NC2=O (stereo partly drawn) [I-1089, Ac-PL3-Asp-Npg-B5-Asp-Glu-Ala-Ala-Phe-Thr-S8-2C1F-BztA-Gln-NH2] | 12 |  |  |  | 43 (≈ 81.9 µg/mL) |  | 2.826 |  | 12 | 8900
CC(=O)N1CCC[C@]12CC=CCCCC1(CCCC=CCCCCCC[C@@](C)(C(=O)N[C@@H](Cc3ccccc3Cl)C(=O)N[C@@H](Cc3csc4ccccc34)C(=O)N[C@H](C(N)=O)[C@@H](C)O)NC(=O)[C@H]([C@@H](C)O)NC(=O)[C@H](Cc3ccccc3)NC(=O)[C@H](C)NC(=O)[C@H](C)NC(=O)[C@H](CC(=O)O)NC(=O)[C@H](CC(=O)O)NC1=O)NC(=O)[C@H](CC(C)(C)C)NC(=O)[C@H](CC(=O)O)NC2=O (stereo partly drawn) [I-1090, Ac-PL3-Asp-Npg-B5-Asp-Asp-Ala-Ala-Phe-Thr-S8-2C1F-BztA-Thr-NH2] | 18 | 2.98 | 39 (≈ 72.7 µg/mL) |  |  |  |  |  |  | 6100
CC(=O)N1CCC[C@]12CC=CCCCC1(CCCC=CCCCCCC[C@@](C)(C(=O)N[C@@H](Cc3ccccc3Cl)C(=O)N[C@@H](Cc3csc4ccccc34)C(=O)N[C@H](C(N)=O)[C@@H](C)O)NC(=O)[C@H]([C@@H](C)O)NC(=O)[C@H](Cc3ccccc3)NC(=O)[C@H](C)NC(=O)[C@H](C)NC(=O)[C@H](CCC(=O)O)NC(=O)[C@H](CC(=O)O)NC1=O)NC(=O)[C@H](CC(C)(C)C)NC(=O)[C@H](CC(=O)O)NC2=O (stereo partly drawn) [I-1091, Ac-PL3-Asp-Npg-B5-Asp-Glu-Ala-Ala-Phe-Thr-S8-2C1F-BztA-Thr-NH2] | 27 | 3.04 | 33 (≈ 62 µg/mL) |  |  |  |  |  |  | 11400
CC(=O)N1CCC[C@]12CC=CCCCC1(CCCC=CCCCCCC[C@@](C)(C(=O)N[C@@H](Cc3ccccc3Cl)C(=O)N[C@@H](Cc3csc4ccccc34)C(=O)N[C@@H](C(N)=O)[C@H](C)O)NC(=O)[C@H]([C@@H](C)O)NC(=O)[C@H](Cc3ccccc3)NC(=O)[C@H](C)NC(=O)[C@H](C)NC(=O)[C@H](CC(=O)O)NC(=O)[C@H](CC(=O)O)NC1=O)NC(=O)[C@H](CC(C)(C)C)NC(=O)[C@H](CC(=O)O)NC2=O (stereo partly drawn) [I-1092, Ac-PL3-Asp-Npg-B5-Asp-Asp-Ala-Ala-Phe-Thr-S8-2C1F-BztA-dThr-NH2] | 26 | 3.17 | 28 (≈ 52.2 µg/mL) |  |  |  |  |  |  | 7700
